Data from patent US7053105B2, “Farnesyl transferase inhibiting quinoline and quinazoline derivatives as farnesyl transferase inhibitors” (Janssen Pharmaceutica, N.V., priority 2000, dated 2006).

**Q.** With Cc1cc(-c2cccc(Cl)c2)c2cc(C(O)(c3ccc(Cl)cc3)c3nncn3C)ccc2n1.O (centres unmarked) (hydrate or solvate) as the compound, how does the melting point read?
**A.** 150 °C

**Q.** With Cn1cncc1C(O)(c1ccc(Cl)cc1)c1ccc2nc(C=NO)cc(-c3cccc(Cl)c3)c2c1 (racemic) [Example B1, (±)-4-(3-chlorophenyl)-6-[(4-chlorophenyl)hydroxy(1-methyl-1H-imidazol-5-yl)methyl]-2-quinolinecarboxaldehyde, oxime] as the compound, how does the melting point read?
**A.** 205 °C

**Q.** Which melting point does the source give for Cn1cncc1C(O)(c1ccc(Cl)cc1)c1ccc2nc(/C=C/C(N)=O)cc(-c3cccc(Cl)c3)c2c1 (racemic) [Example B11, (±)-(E)-3-[4-(3-chlorophenyl)-6-[(4-chlorophenyl)hydroxy(1-methyl-1H-imidazol-5-yl)methyl]-2-quinolinyl]-2-propenamide] here?
**A.** 80 °C

**Q.** With Cn1cncc1-c1nc(-c2cccc(Cl)c2)c2cc(C(O)(c3ccc(Cl)cc3)c3cncn3C)ccc2n1 (stereo not drawn) [Example B6, 4-(3-chlorophenyl)-α-(4-chlorophenyl)-α,2-bis(1-methyl-1H-imidazol-5-yl)-6-quinazolinemethanol] as the compound, how does the melting point read?
**A.** 160 °C

**Q.** Which melting point does the source give for Cc1nc(-c2cccc(Cl)c2)c2cc(C(O)(c3ccc(Cl)cc3)c3cncn3C)ccc2n1 (stereo not drawn) [Example B13, 4-(3-chlorophenyl)-α-(4-chlorophenyl)-2-methyl-α-(1-methyl-1H-imidazol-5-yl)-6-quinazolinemethanol] here?
**A.** 223 °C

**Q.** Which melting point does the source give for Cc1cc(-c2cccc(Cl)c2)c2cc(C(O)(c3ccc(Cl)cc3)c3nnc(S)n3C)ccc2n1 (stereo not drawn) [Example B14a, 4-(3-chlorophenyl)-α-(4-chlorophenyl)-α-(5-mercapto-4-methyl-4H-1,2,4-triazol-3-yl)-2-methyl-6-quinolinemethanol] here?
**A.** 166 °C

**Q.** Which melting point does the source give for CSc1nnc(C(O)(c2ccc(Cl)cc2)c2ccc3nc(C)cc(-c4cccc(Cl)c4)c3c2)n1C (stereo not drawn) [Example B14b, 4-(3-chlorophenyl)-α-(4-chlorophenyl)-2-methyl-α-[4-methyl-5-(methylthio)-4H-1,2,4-triazol-3-yl]-6-quinolinemethanol] here?
**A.** 142 °C

**Q.** Which melting point does the source give for CSc1nnc(C(N)(c2ccc(Cl)cc2)c2ccc3nc(C)cc(-c4cccc(Cl)c4)c3c2)n1C (stereo not drawn) [Example B16b, 4-(3-chlorophenyl)-α-(4-chlorophenyl)-2-methyl-α-[4-methyl-5-(methylthio)-4H-1,2,4-triazol-3-yl]-6-quinolinemethanamine] here?
**A.** 128 °C

**Q.** With Cn1cncc1C(O)(c1ccc(Cl)cc1)c1ccc2nc(N)nc(-c3cccc(Cl)c3)c2c1 (stereo not drawn) [Example B19, 2-amino-4-(3-chlorophenyl)-α-(4-chlorophenyl)-α-(1-methyl-1H-imidazol-5-yl)-6-quinazolinemethanol] as the compound, how does the melting point read?
**A.** 235 °C

**Q.** Which melting point does the source give for Cn1cncc1C(O)(c1ccc(Cl)cc1)c1ccc2nc(C#Cc3ccccc3)cc(-c3cccc(Cl)c3)c2c1 (stereo not drawn) [Example B25, 4-(3-chlorophenyl)-α-(4-chlorophenyl)-α-(1-methyl-1H-imidazol-5-yl)-2-(phenylethynyl)-6-quinolinemethanol] here?
**A.** 154 °C

**Q.** For Cn1cncc1C(O)(c1ccc(Cl)cc1)c1ccc2nc(-c3cccnc3)nc(-c3cccc(Cl)c3)c2c1 (stereo not drawn) [Example B26, 4-(3-chlorophenyl)-α-(4-chlorophenyl)-α-(1-methyl-1H-imidazol-5-yl)-2-(3-pyridinyl)-6-quinazolinemethanol], which melting point is on record?
**A.** 178 °C
